Data from patent US11680047B2, “Enhanced erythropoiesis and iron metabolism” (FibroGen, Inc., priority 2003, dated 2023).

Tested on: Ceruloplasmin (CP)
Test: Microarray gene expression in Hep3B cells: ceruloplasmin
Format: cell-based, human
Conditions: 2 μM
Procedure: Hep3B cells (ATCC No. HB-8064) were grown in DMEM containing 8% fetal bovine serum. Hep3B cells were seeded into 6-well culture dishes at ˜500,000 cells per well. After 8 hours, the media was changed to DMEM containing 0.5% fetal bovine serum and the cells were incubated for an additional 16 hours. Compound B or compound D was added to the cells (2 μM final concentration) and the cells were incubated for various times. Control cells (no compound treatment, addition of DMSO alone) were harvested at 0, 6 and 48 hours. Harvested cells were assessed for cell viability (GUAVA), or added to RNA extraction buffer (RNeasy, Qiagen) and stored at −20° C. for subsequent RNA purification. Replicate microarrays were generated using RNA isolated from replicate experiments conducted on different days. Total RNA was isolated from cells using the RNeasy kit (Qiagen).
RNA was precipitated in 0.3 M sodium acetate (pH 5.2), 50 ng/ml glycogen, and 2.5 volumes of ethanol for one hour at −20° C. Samples were centrifuged and pellets were washed with cold 80% ethanol, dried, and resuspend in water. Double stranded cDNA was synthesized using a T7-(dT)24 first strand primer (Affymetrix, Inc., Santa Clara Calif.) and the SUPERSCRIPT CHOICE system (Invitrogen) according to the manufacturer's instructions. The final cDNA was extracted with an equal volume of 25:24:1 phenol:chloroform:isoamyl alcohol using a PHASE LOCK GEL insert (Brinkman, Inc., Westbury N.Y.). The aqueous phase was collected and cDNA was precipitated using 0.5 volumes of 7.5 M ammonium acetate and 2.5 volumes of ethanol. Alternatively, cDNA was purified using the GENECHIP sample cleanup module (Affymetrix) according to the manufacturer's instructions.
Biotin-labeled cRNA was synthesized from the cDNA in an in vitro […] (IVT) reaction using a BIOARRAY HighYield RNA transcript labeling kit (Enzo Diagnostics, Inc., Farmingdale N.Y.) according to the manufacturer's instructions. Final labeled product was purified and fragmented using the GENECHIP sample cleanup module (Affymetrix) according to the manufacturer's instructions.
Hybridization cocktail was prepared by bringing […] probe to […] in 1× hybridization buffer (100 mM MES, 1 M [Na^+], 20 mM EDTA, 0.01% Tween 20), 100 µg/ml herring sperm DNA, 500 µg/ml acetylated BSA, 0.03 nM contol oligo B2 (Affymetrix), and 1×GENECHIP eukaryotic hybridization control (Affymetrix). The cocktail was sequentially incubated at 99° C. for 5 minutes and 45° C. for 5 minutes, and then centrifuged for 5 minutes. The Human Genome U133A array (Affymetrix) was brought to room temperature and then prehybridized with 1× hybridization buffer at 45° C. for 10 minutes with rotation. The buffer was then replaced with […] hybridization cocktail and the array was hybridized for 16 hours at 45° C. at 60 rpm with counter balance. Following hybridization, arrays were washed once with 6×SSPE, 0.1% Tween 20, and then washed and stained using R-phycoerythrin-conjugated streptavidin (Molecular Probes, Eugene Oreg.), goat anti-streptavidin antibody (Vector Laboratories, Burlingame Calif.), and a GENECHIP Fluidics Station 400 instrument (Affymetrix) according to the manufacturer's micro_1v1 protocol (Affymetrix). Arrays were analyzed using a GENEARRAY scanner (Affymetrix) and Microarray Suite software (Affymetrix).
The Human Genome U133A array (Affymetrix) represents all sequences in the Human Unigene database build 133 (National Center for Biotechnology Information, Bethesda Md.), including approximately 14,500 well-characterized human genes.
RNA quality was monitored by capillary electrophoresis (Agilent Bioanalyzer). Hybridization cocktails were prepared as described (Affymetrix), and hybridized to Affymetrix human U133A arrays containing 22,283 probe sets. Array performance was analyzed with Affymetrix MicroArray Suite (MAS) software and individual probe sets were assigned “present”, “marginal, and “absent” calls according to software defaults. […]

## O=C(O)CNC(=O)c1ncc2cc(Oc3ccccc3)ccc2c1O [Compound B, [(4-Hydroxy-7-phenoxy-isoquinoline-3-carbonyl)-amino]-acetic acid]
1 hr
  Ceruloplasmin (CP) fold-increase in mRNA levels above control, first data point: 1.142 fold
  Ceruloplasmin (CP) fold-increase in mRNA levels above control, second data point: 0.946 fold
3 hr
  Ceruloplasmin (CP) fold-increase in mRNA levels above control, first data point: 1.123 fold
  Ceruloplasmin (CP) fold-increase in mRNA levels above control, second data point: 0.955 fold
6 hr
  Ceruloplasmin (CP) fold-increase in mRNA levels above control, first data point: 1.555 fold
  Ceruloplasmin (CP) fold-increase in mRNA levels above control, second data point: 1.103 fold
12 hr
  Ceruloplasmin (CP) fold-increase in mRNA levels above control, first data point: 2.366 fold
  Ceruloplasmin (CP) fold-increase in mRNA levels above control, second data point: 2.507 fold
24 hr
  Ceruloplasmin (CP) fold-increase in mRNA levels above control, first data point: 5.136 fold
  Ceruloplasmin (CP) fold-increase in mRNA levels above control, second data point: 4.909 fold
48 hr
  Ceruloplasmin (CP) fold-increase in mRNA levels above control, first data point: 5.82 fold
  Ceruloplasmin (CP) fold-increase in mRNA levels above control, second data point: 4.678 fold
